Measurements: ChEMBL document CHEMBL1133570, “Synthesis and in vitro and in vivo activity of (-)-(1R,5R,9R)- and (+)-(1S,5S,9S)-N-alkenyl-, -N-alkynyl-, and -N-cyanoalkyl-5, 9-dimethyl-2'-hydroxy-6,7-benzomorphan homologues” (J Med Chem, 2000)
The source made the active and inactive calls. Unless noted, no cut-off for these calls is given here.

What was measured:
[1] = molecular target: T1, Opioid receptor (Mus musculus) (UniProt P42866+P32300+P33534); assay: Evaluated in vivo for the antinociceptive and opioid antagonist assays in ICR male mice, Tail-Flick agonist and antagonist tests was performed; IA, Inactive less than 70% of mice affected at 30 mg/kg.; assay type: functional, organism-based; parameters: dose 30 mg/kg
[2] = molecular target: Kappa-type opioid receptor (Mus musculus, UniProt P33534); assay: (§1) Ki value determined against Opioid receptor kappa 1 using [3H]U69, 593 at the Kd concentration 0.95 nM
[3] = molecular target: Delta-type opioid receptor (Mus musculus, UniProt P32300); assay: Ki value determined against Opioid receptor delta 1 using [3H]DPDPE at the Kd concentration 2.1 nM
[4] = molecular target: Delta-type opioid receptor (Homo sapiens) (UniProt P41143); assay: Antinociceptive activity was determined at Opioid receptor delta 1 using DPDPE; assay type: functional
[5] = molecular target: Delta-type opioid receptor (Homo sapiens) (UniProt P41143); assay: Antinociceptive activity was determined at Opioid receptor delta 1 versus ED80 of U69,593; assay type: functional
[6] = molecular target: Delta-type opioid receptor (Homo sapiens) (UniProt P41143); assay: Antinociceptive activity was determined at Opioid receptor delta 1 versus ED80 of morphine; assay type: functional
Mu-type opioid receptor = Mu-type opioid receptor (Mus musculus, UniProt P42866); assay: (§2) Ki value determined against Opioid receptor mu 1 using [3H]DAMGO at the Kd concentration 0.57 nM
[7] = molecular target: Sigma non-opioid intracellular receptor 1 (Mus musculus, UniProt O55242); assay: Ki value determined against Sigma opioid receptor type 1 using [(+)-[3H]pentazocine at the Kd concentration 2nM
Sigma 2 receptor [8] = assay: Ki value determined against Sigma opioid receptor type 2 using [3H]DTG (5 nM) with 1 uM dextrallorphan to mask sigma-1 binding; parameters: species or system Mus musculus
[9] = molecular target: T1, Opioid receptor (Mus musculus); assay: Hot plate test was carried out for mouse injected sc and the antinociceptive activity was determined from the response;IA, Inactive less than 70% of mice affected at 30 mg/kg.; assay type: functional, organism-based; parameters: dose 30 mg/kg
[10] = molecular target: T1, Opioid receptor (Mus musculus); assay: Using the PPQ (paraphenylquinone) assay selective opioid receptor agonist activity was established in mice; assay type: functional
[11] = (§3) Tail-flick vs. morphine ED80(morphine sulfate substituted completely) was studied to determine selective in vivo agonist and antagonist activity.; assay type: functional
[12] = molecular target: Kappa-type opioid receptor (Mus musculus) (UniProt P33534); assay: as §1
[13] = molecular target: Mu-type opioid receptor (Mus musculus) (UniProt P42866); assay: as §2
[14] = molecular target: Sigma non-opioid intracellular receptor 1 (Rattus norvegicus, UniProt Q9R0C9); assay: Ki value determined against Sigma opioid receptor type 1 using [(+)-[3H]pentazocine at the Kd concentration 2 nM.
[15] = molecular target: T1, Opioid receptor (Mus musculus); settings: Tail
Description: (§5) Narcotic antagonist activity in the mouse tail-flick versus morphine assay

Mus musculus = assay: (§4) Tail-flick vs. morphine ED80(morphine sulfate substituted completely) was studied to determine selective in vivo agonist and antagonist activity.;IA, Inactive less than 70% of mice affected at 30 mg/kg.; assay type: functional, organism-based; parameters: dose 30 mg/kg
[16] = molecular target: T1, Opioid receptor (Mus musculus); assay: Evaluated in vivo for the antinociceptive and opioid antagonist assays in ICR male mice, Tail-Flick agonist and antagonist tests was performed; assay type: functional, organism-based
[17] = molecular target: T1, Opioid receptor (Mus musculus); assay: Hot plate test was carried out for mouse injected sc and the antinociceptive activity was determined from the response; assay type: functional, organism-based
Sigma 2 receptor [18] = assay: Ki value determined against Sigma opioid receptor type 2 using [3H]DTG(5nM) with 1 uM dextrallorphan to mask sigma1 binding; parameters: species or system Mus musculus
[19] = as §4; assay type: functional, organism-based; parameters: dose 30 mg/kg
[20] = molecular target: T1, Opioid receptor (Mus musculus); assay: as §3; assay type: functional, organism-based
[21] = molecular target: T1, Opioid receptor (Mus musculus); assay: Antinociceptive activity was determined in vivo in all opioid type tests; assay type: organism-based
[22] = molecular target: T1, Opioid receptor (Mus musculus); assay: Using the PPQ (paraphenylquinone) assay selective opioid receptor agonist activity was established in mice;IA, Inactive less than 70% of mice affected at 30 mg/kg.; assay type: functional, organism-based; parameters: dose 30 mg/kg
[23] = molecular target: T1, Opioid receptor (Mus musculus)
Description: Antinociceptive activity was determined in vivo in all opioid type tests, expressed as AD50 administered subcutaneously

[24] = molecular target: T1, Opioid receptor (Mus musculus); settings: Tail; remark: listed apart in the source
Description: as §5

Sequence of Delta-type opioid receptor (P32300 whole entry): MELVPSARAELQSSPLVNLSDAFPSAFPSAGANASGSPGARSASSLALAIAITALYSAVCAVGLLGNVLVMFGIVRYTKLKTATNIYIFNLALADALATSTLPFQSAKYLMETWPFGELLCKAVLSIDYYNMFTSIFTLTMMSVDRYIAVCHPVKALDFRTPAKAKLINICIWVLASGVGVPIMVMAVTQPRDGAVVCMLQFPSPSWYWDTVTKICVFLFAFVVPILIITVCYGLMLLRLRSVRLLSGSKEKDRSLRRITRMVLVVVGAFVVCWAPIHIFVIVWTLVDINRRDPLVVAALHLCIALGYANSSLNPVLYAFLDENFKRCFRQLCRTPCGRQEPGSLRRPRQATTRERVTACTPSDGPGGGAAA
T1 sequence (P32300 whole entry, looked up): as the sequence (P32300 whole entry) above
T1 sequence (P33534 whole entry, looked up): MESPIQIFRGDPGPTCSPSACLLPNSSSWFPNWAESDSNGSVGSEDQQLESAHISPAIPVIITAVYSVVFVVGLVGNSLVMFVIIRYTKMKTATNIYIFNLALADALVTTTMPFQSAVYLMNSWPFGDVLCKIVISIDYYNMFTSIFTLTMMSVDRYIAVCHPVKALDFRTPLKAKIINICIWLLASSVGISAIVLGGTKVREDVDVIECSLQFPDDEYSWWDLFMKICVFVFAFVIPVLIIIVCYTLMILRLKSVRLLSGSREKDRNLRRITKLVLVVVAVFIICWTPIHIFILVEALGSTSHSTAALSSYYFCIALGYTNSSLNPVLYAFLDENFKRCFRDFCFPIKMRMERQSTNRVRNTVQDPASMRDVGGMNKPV
T1 sequence (P42866 whole entry, looked up): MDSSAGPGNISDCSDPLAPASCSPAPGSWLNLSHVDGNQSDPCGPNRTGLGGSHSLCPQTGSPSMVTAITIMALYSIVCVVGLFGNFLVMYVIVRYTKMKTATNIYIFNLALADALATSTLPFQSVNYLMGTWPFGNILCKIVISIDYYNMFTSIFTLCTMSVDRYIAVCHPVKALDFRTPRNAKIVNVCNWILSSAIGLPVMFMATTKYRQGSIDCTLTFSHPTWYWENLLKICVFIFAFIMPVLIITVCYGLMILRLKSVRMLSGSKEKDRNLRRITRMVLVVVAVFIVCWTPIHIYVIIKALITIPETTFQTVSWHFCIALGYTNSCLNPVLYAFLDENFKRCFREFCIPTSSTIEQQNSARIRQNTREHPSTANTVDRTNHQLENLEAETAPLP
Sequence of Delta-type opioid receptor (Homo sapiens) (P41143 whole entry): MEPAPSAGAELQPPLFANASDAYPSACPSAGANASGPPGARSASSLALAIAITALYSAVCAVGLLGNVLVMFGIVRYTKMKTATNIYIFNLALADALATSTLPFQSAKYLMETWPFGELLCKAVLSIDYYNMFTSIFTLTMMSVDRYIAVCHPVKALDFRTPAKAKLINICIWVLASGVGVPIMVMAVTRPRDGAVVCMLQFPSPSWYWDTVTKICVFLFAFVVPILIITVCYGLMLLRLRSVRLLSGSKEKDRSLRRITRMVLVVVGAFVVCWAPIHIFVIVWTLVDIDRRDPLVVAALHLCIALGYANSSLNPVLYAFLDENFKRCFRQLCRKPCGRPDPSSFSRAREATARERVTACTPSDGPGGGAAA
Sequence of Kappa-type opioid receptor (Mus musculus) (P33534 whole entry): as the sequence (P33534 whole entry, looked up) above
Sequence of Kappa-type opioid receptor (P33534 whole entry): as the sequence (P33534 whole entry, looked up) above
Sequence of Sigma non-opioid intracellular receptor 1 (Mus musculus, UniProt O55242) (O55242 whole entry): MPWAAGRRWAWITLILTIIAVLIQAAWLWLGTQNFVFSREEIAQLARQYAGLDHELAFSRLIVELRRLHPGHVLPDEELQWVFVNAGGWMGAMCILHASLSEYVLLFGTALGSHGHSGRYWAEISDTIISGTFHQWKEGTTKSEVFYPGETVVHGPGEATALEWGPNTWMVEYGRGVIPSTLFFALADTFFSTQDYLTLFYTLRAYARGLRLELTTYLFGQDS
Sequence of Mu-type opioid receptor (Mus musculus) (P42866 whole entry): as the sequence (P42866 whole entry, looked up) above
Sequence of Mu-type opioid receptor (P42866 whole entry): as the sequence (P42866 whole entry, looked up) above
Sequence of Sigma non-opioid intracellular receptor 1 (Rattus norvegicus, UniProt Q9R0C9) (Q9R0C9 whole entry): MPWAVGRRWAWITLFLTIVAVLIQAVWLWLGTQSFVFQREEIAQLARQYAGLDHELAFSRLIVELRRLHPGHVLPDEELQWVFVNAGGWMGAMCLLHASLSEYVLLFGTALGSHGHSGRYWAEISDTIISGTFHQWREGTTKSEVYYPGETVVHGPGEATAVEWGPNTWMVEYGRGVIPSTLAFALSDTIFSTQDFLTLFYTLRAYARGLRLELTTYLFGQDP

Row | Structure (SMILES) | Ki [2] [nM] | Ki [3] [nM] | Ki (Mu-type opioid receptor) [nM] | Ki [7] [nM] | Ki (Sigma 2 receptor [8]) [nM] | ED50 [10] [mg/kg] | Ki [14] [nM] | also measured
1 | C#CCCCN1CC[C@]2(C)c3cc(O)ccc3CC1[C@@H]2C | 11 | 140 | 18 | 200 | 440 | 12 |  | ED50 [1]: inactive; AD50 [4]: 0.05 mg/kg; AD50 [5]: 1.2 mg/kg; AD50 [6]: 20 mg/kg; ED50 [9]: inactive; ED50 [11]: 2 mg/kg
2 | C=CCCN1CC[C@]2(C)c3cc(O)ccc3CC1C2C (stereo partly drawn) |  |  |  |  |  |  | 15 | inhibition [12]: 35.5%; inhibition [13]: 41%
3 | C=CCCCCN1CC[C@]2(C)c3cc(O)ccc3CC1C2C (stereo partly drawn) |  |  | 980 |  |  |  | 1.1 | 
4 | CC1C2Cc3ccc(O)cc3[C@@]1(C)CCN2CCCCC#N (stereo partly drawn) | 1300 |  | 4800 |  |  |  | 36 | 
5 | C=CCN1CC[C@]2(C)c3cc(O)ccc3CC1C2C (stereo partly drawn) |  |  |  |  |  |  | 300 | inhibition [12]: 31%; inhibition [13]: 28.5%; AD50 [15]: 13.2 mg/kg
6 | C[C@H]1C2Cc3ccc(O)cc3[C@@]1(C)CCN2CCCCCCC#N | 38 | 350 | 90 | 80 | 150 | 9 |  | ED50 [1]: inactive; ED50 [9]: inactive; ED50 (Mus musculus): inactive
7 | CC1C2Cc3ccc(O)cc3[C@@]1(C)CCN2CCC#N (stereo partly drawn) | 600 |  |  |  |  |  | 250 | inhibition [13]: 11.6%
8 | C[C@H]1C2Cc3ccc(O)cc3[C@@]1(C)CCN2CC#N | 70 | 590 | 100 | 13000 | 19000 | 1.5 |  | ED50 [16]: 12 mg/kg; ED50 [17]: 9 mg/kg
9 | CC1C2Cc3ccc(O)cc3[C@@]1(C)CCN2CCCCCC#N (stereo partly drawn) | 500 |  |  |  |  |  | 33 | inhibition [13]: 12.4%
10 | CC#CCN1CC[C@]2(C)c3cc(O)ccc3CC1[C@@H]2C (stereo in doubt; 26) [listing 1 of 2 here] |  |  |  | 160 |  |  |  | Ki (Sigma 2 receptor [18]): 12000 nM
11 | C#CCCN1CC[C@]2(C)c3cc(O)ccc3CC1[C@@H]2C | 1.4 | 10 | 4.6 | 5900 | 2200 | 0.04 |  | ED50 [16]: 0.05 mg/kg; ED50 [17]: 0.1 mg/kg; ED50 [19]: inactive
12 | C=CCCN1CC[C@]2(C)c3cc(O)ccc3CC1[C@@H]2C | 1.3 | 21 | 2.1 | 1600 | 620 | 0.3 |  | ED50 [16]: 0.05 mg/kg; ED50 [20]: 4 mg/kg; ED50 [17]: 0.8 mg/kg
13 | C#CCCN1CC[C@]2(C)c3cc(O)ccc3CC1C2C (stereo partly drawn) |  |  |  |  |  |  | 110 | 
14 | CC#CCN1CC[C@]2(C)c3cc(O)ccc3CC1[C@@H]2C (stereo in doubt; 12) [listing 1 of 2 here] | 3.9 | 60 | 0.5 | 9800 | 4400 |  |  | ED50 [11]: 0.3 mg/kg
15 | CC1C2Cc3ccc(O)cc3[C@@]1(C)CCN2CC#N (stereo partly drawn) |  |  |  |  |  |  | 11000 | inhibition [12]: 20.4%; inhibition [13]: 18.6%
16 | C#CCCCN1CC[C@]2(C)c3cc(O)ccc3CC1C2C (stereo partly drawn) |  |  |  |  |  |  | 18 | 

Row | Structure (SMILES) | Ki [2] [nM] | Ki [3] [nM] | Ki (Mu-type opioid receptor) [nM] | Ki [7] [nM] | Ki (Sigma 2 receptor [8]) [nM] | ED50 [10] [mg/kg] | Ki [14] [nM] | also measured
17 | C[C@H]1C2Cc3ccc(O)cc3[C@@]1(C)CCN2CCC#N | 0.4 | 9.8 | 4.2 | 9800 | 51000 | 0.05 |  | ED50 [16]: 0.3 mg/kg; ED50 [17]: 0.1 mg/kg
18 | COC(=O)/C=C/C(=O)N[C@@H]1CC[C@@]2(O)[C@H]3Cc4ccc(O)c5c4[C@@]2(CCN3CC2CC2)[C@H]1O5 |  |  |  |  |  |  |  | AD50 [21]: 0.6 µg brain-1
19 | C=CCCCCN1CC[C@]2(C)c3cc(O)ccc3CC1[C@@H]2C | 5.8 | 56 | 10 | 22 | 80 | 0.8 |  | ED50 [16]: 0.3 mg/kg; ED50 [17]: 0.6 mg/kg; ED50 [19]: inactive
20 | C[C@H]1C2Cc3ccc(O)cc3[C@@]1(C)CCN2CCCCCC#N | 11 | 220 | 15 | 640 | 380 |  |  | ED50 [1]: inactive; ED50 [20]: 10 mg/kg; ED50 [9]: inactive; ED50 [22]: inactive
21 | C=CCCCN1CC[C@]2(C)c3cc(O)ccc3CC1[C@@H]2C | 5.9 | 60 | 15 | 50 | 180 | 1.4 |  | ED50 [1]: inactive; ED50 [9]: inactive; ED50 [11]: 6 mg/kg
22 | C=CCN1CC[C@]2(C)c3cc(O)ccc3CC1[C@@H]2C | 0.3 | 5.5 | 0.9 | 11000 | 3200 | 0.1 |  | ED50 [1]: inactive; ED50 [9]: inactive; ED50 [11]: 0.2 mg/kg
23 | Oc1ccc2c3c1O[C@H]1c4[nH]c5c(c4C[C@@]4(O)[C@@H](C2)N(CC2CC2)CC[C@]314)C[C@@]1(O)[C@H]2Cc3ccc(O)c4c3[C@@]1(CCN2CC1CC1)[C@H]5O4 |  |  |  |  |  |  |  | AD50 [23]: 0.3 mg/kg
24 | CC#CCN1CC[C@]2(C)c3cc(O)ccc3CC1[C@@H]2C (stereo in doubt; 26) [listing 2 of 2 here] |  |  |  |  |  |  |  | AD50 [24]: 6.7 mg/kg
25 | C[C@H]1C2Cc3ccc(O)cc3[C@@]1(C)CCN2CCCC#N | 0.4 | 23 | 5.8 | 1700 | 8400 | 0.01 |  | ED50 [16]: 0.4 mg/kg; ED50 [17]: 1 mg/kg
26 | CC#CCN1CC[C@]2(C)c3cc(O)ccc3CC1[C@@H]2C (stereo in doubt; 12) [listing 2 of 2 here] |  |  |  |  |  | 0.1 |  | ED50 [1]: inactive; ED50 [9]: inactive
27 | C=CCCCN1CC[C@]2(C)c3cc(O)ccc3CC1C2C (stereo partly drawn) | 400 |  |  |  |  |  | 2.1 | inhibition [13]: 20.5%
28 | CC1C2Cc3ccc(O)cc3[C@@]1(C)CCN2CCCC#N (stereo partly drawn) | 240 |  |  |  |  |  | 20 | inhibition [13]: 9%
29 | CC1C2Cc3ccc(O)cc3[C@@]1(C)CCN2CCCCCCC#N (stereo partly drawn) |  |  |  |  |  |  | 16 | inhibition [12]: 17.7%; inhibition [13]: 37%
30 | C[C@H]1C2Cc3ccc(O)cc3[C@@]1(C)CCN2CCCCC#N | 6.9 | 160 | 18 | 490 | 2800 | 3 |  | ED50 [16]: 15 mg/kg
31 | Oc1ccc2c3c1O[C@H]1c4[nH]c5ccccc5c4C[C@@]4(O)[C@@H](C2)N(CC2CC2)CC[C@]314 |  |  |  |  |  |  |  | AD50 [23]: 3.1 mg/kg
